In ChEMBL document CHEMBL1201862, “PubChem BioAssay data set” (2004):
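The compound was tested at five concentrations on cells cultured in 96-well plates, with a 48-hour exposure period. Here, GI50 denotes the concentration required for 50% inhibition of growth.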 Activity calls are given as the source filed them. Cut-off read from the data, not from the text of the source: active = GI50 up to about 1.1 µM and inactive = higher.

How the values were obtained:
Assay in all cases: inhibition of tumour cell growth, NCI panel, 48 h
786-0 = tested on: 786-0
A498 = tested on: A498
A549 = tested on: A549
ACHN = tested on: ACHN
BT-549 = tested on: BT-549
CAKI-1 = tested on: CAKI-1
CCRF-CEM = tested on: CCRF-CEM
COLO 205 = tested on: COLO 205
DU-145 = tested on: DU-145
EKVX = tested on: EKVX
HCC 2998 = tested on: HCC 2998
HCT-116 = tested on: HCT-116
HCT-15 = tested on: HCT-15
HL-60 = tested on: HL-60
HOP-62 = tested on: HOP-62
HOP-92 = tested on: HOP-92
HT-29 = tested on: HT-29
Hs-578T = tested on: Hs-578T
IGROV-1 = tested on: IGROV-1
K562 = tested on: K562
KM12 = tested on: KM12
LOX IMVI = tested on: LOX IMVI
M14 = tested on: M14
MCF7 = tested on: MCF7
MDA-MB-231 = tested on: MDA-MB-231
MDA-MB-435 = tested on: MDA-MB-435
MDA-N = tested on: MDA-N
MOLT-4 = tested on: MOLT-4
Malme-3M = tested on: Malme-3M
NCI-H226 = tested on: NCI-H226
NCI-H23 = tested on: NCI-H23
NCI-H460 = tested on: NCI-H460
NCI-H522 = tested on: NCI-H522
NCI/ADR-RES = tested on: NCI/ADR-RES
OVCAR-4 = tested on: OVCAR-4
OVCAR-5 = tested on: OVCAR-5
OVCAR-8 = tested on: OVCAR-8
PC-3 = tested on: PC-3
RPMI-8226 = tested on: RPMI-8226
RXF 393 = tested on: RXF 393
SF-268 = tested on: SF-268
SF-295 = tested on: SF-295
SF-539 = tested on: SF-539
SK-MEL-28 = tested on: SK-MEL-28
SK-MEL-2 = tested on: SK-MEL-2
SK-MEL-5 = tested on: SK-MEL-5
SK-OV-3 = tested on: SK-OV-3
SN12C = tested on: SN12C
SNB-19 = tested on: SNB-19
SNB-75 = tested on: SNB-75
SR = tested on: SR
SW-620 = tested on: SW-620
T47D = tested on: T47D
TK-10 = tested on: TK-10
U-251 = tested on: U-251
UACC-257 = tested on: UACC-257
UACC-62 = tested on: UACC-62
UO-31 = tested on: UO-31

## Clc1ccc(/C(=C\c2ccccc2)Cn2ccnc2)cc1
786-0
  GI50: 17.4 µM (inactive)
A498
  GI50: 15.3 µM (inactive)
A549
  GI50: 18 µM (inactive)
ACHN
  GI50: 16.6 µM (inactive)
BT-549
  GI50: 14.4 µM (inactive)
CAKI-1
  GI50: 7.21 µM (inactive)
CCRF-CEM
  GI50: 24.5 µM (inactive)
COLO 205
  GI50: 15.1 µM (inactive)
DU-145
  GI50: 20.1 µM (inactive)
EKVX
  GI50: 21.9 µM (inactive)
HCC 2998
  GI50: 21.3 µM (inactive)
HCT-116
  GI50: 14.8 µM (inactive)
HCT-15
  GI50: 17.8 µM
HL-60
  GI50: 14.1 µM (inactive)
HOP-62
  GI50: 15.9 µM (inactive)
HOP-92
  GI50: 14.8 µM (inactive)
HT-29
  GI50: 15.5 µM (inactive)
Hs-578T
  GI50: > 100 µM (inactive)
IGROV-1
  GI50: 19.6 µM (inactive)
K562
  GI50: 9.93 µM (inactive)
KM12
  GI50: 4.93 µM (inactive)
LOX IMVI
  GI50: 8.83 µM (inactive)
M14
  GI50: 19.6 µM (inactive)
MCF7
  GI50: 16.1 µM (inactive)
MDA-MB-231
  GI50: 11.1 µM (inactive)
MDA-MB-435
  GI50: 11.2 µM (inactive)
MDA-N
  GI50: 14.9 µM (inactive)
MOLT-4
  GI50: 21.1 µM (inactive)
Malme-3M
  GI50: 10.2 µM (inactive)
NCI-H226
  GI50: 13.6 µM (inactive)
NCI-H23
  GI50: 28.9 µM (inactive)
NCI-H460
  GI50: 20.1 µM (inactive)
NCI-H522
  GI50: 8.15 µM (inactive)
NCI/ADR-RES
  GI50: 14.6 µM (inactive)
OVCAR-4
  GI50: 30.5 µM (inactive)
OVCAR-5
  GI50: 19.8 µM (inactive)
OVCAR-8
  GI50: 16.1 µM (inactive)
PC-3
  GI50: 11.5 µM (inactive)
RPMI-8226
  GI50: 22.3 µM (inactive)
RXF 393
  GI50: 17.3 µM (inactive)
SF-268
  GI50: 4.25 µM (inactive)
SF-295
  GI50: 17.9 µM (inactive)
SF-539
  GI50: 16.3 µM (inactive)
SK-MEL-28
  GI50: 13.3 µM (inactive)
SK-MEL-2
  GI50: 14.3 µM (inactive)
SK-MEL-5
  GI50: 12.8 µM (inactive)
SK-OV-3
  GI50: 16.5 µM (inactive)
SN12C
  GI50: 27.4 µM (inactive)
SNB-19
  GI50: 21 µM (inactive)
SNB-75
  GI50: 26.2 µM (inactive)
SR
  GI50: 3.46 µM (inactive)
SW-620
  GI50: 29.5 µM (inactive)
T47D
  GI50: 19.2 µM (inactive)
TK-10
  GI50: 35.6 µM (inactive)
U-251
  GI50: 15.2 µM (inactive)
UACC-257
  GI50: 19.3 µM (inactive)
UACC-62
  GI50: 16.7 µM (inactive)
UO-31
  GI50: 5.28 µM (inactive)
